Columns and labels:
[1] = target: T1, Mouse histone methyltransferase G9a (969-1263) (Mus musculus, UniProt Q9Z148); experiment: MALDI-TOF methylation study of G9a inhibition; assay type: biochemical; settings: inhibitors at 5 μM concentration for 30 min
T1 construct: The 6His-sumo mG9a (969-1263) protein was purified using the following procedure; 6His-sumo (cleaved yes); made in house; host or cells: Escherichia coli BL21 (DE3)
T1 sequence (Q9Z148 969-1263): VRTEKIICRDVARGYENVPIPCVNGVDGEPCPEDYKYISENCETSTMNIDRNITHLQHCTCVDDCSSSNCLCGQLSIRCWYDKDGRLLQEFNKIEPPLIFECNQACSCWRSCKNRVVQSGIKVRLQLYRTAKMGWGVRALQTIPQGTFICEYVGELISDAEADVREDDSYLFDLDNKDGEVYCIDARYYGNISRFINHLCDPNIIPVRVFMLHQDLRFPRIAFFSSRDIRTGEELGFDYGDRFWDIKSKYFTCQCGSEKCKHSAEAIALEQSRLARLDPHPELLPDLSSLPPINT
Description: Mouse histone methyltransferase G9a (969-1263) cDNA was amplified from the cDNA of BALB/c mouse thymus, and the fragment was sub-cloned into a vector with a 6His-sumo tag. […] The 6His-sumo mG9a (969-1263) protein was purified using the following procedure: harvested cell pellet was re-suspended in 20 mM Tris (pH 8.0), 500 mM NaCl, 0.1% β-mercaptoethanol, and 1 mM PMSF. Cells were lysed by sonicating for 15 seconds with 6 second intervals for a total time of 15 minutes on an ice bath. […] The 6His-sumo tag was cleaved from the column by adding Ubiquitin-like-specific protease 1 (ULP-1) at 4° C. for 12 hours. Wash buffer was then run through the Ni^+ column again and the elution buffer collected. Subsequently, advanced protein purification was done by HiTrap Q HP sequential Superdex 200 10/300 GL. Elute of every step was analyzed by SDS PAGE, stained by Coomassie brilliant blue (CBB). […] The reaction was incubated at room temperature for 30 min, and stopped by TFA. 1 μL of the sample was mixed with CHCA matrix and m/z peaks were obtained at reflection positive mode. The results of mass spectrum were analyzed using the Bruker flex analysis software and data processing was carried out as described below. MALDI-TOF based experiments were performed according to the protocol developed by Chang et al. (Nat. Struct. Mol. Biol. 2009, 16, 312-317). MALDI spectra were collected using Bruker flex control software and analyzed by flex analysis. After labelling each cluster peaks of H3K9Me0, H3K9Me1 and H3K9Me2 for all of the tested concentrations, area under the cluster (AUC) were extracted by using the same flex analysis software. % abundance of each peak was calculated by following formula: A=% Abundance of (H3K9Me0)=area of H3K9Me0/(area of H3K9Me0+area of H3K9Me1+area of H3K9Me2) B=% Abundance of (H3K9Me1)=area of H3K9Me1/(area of H3K9Me0+area of H3K9Me1+area of H3K9Me2) C=% Abundance of (H3K9Me2)=area of H3K9Me2/(area of H3K9Me0+area of H3K9Me1+area of H3K9Me2). This was repeated for each spectra (3 multiples for each samples). […] Finally % inhibition was found by subtracting % MA(i) from 100. […] A biochemical assay using MALDI-TOF was used to visualize the effects of the synthesized compounds on G9a enzymatic activity. […] Struct. Mol. Biol. 2009, 16, 312-317).

G9a = target: T2, G9a (Homo sapiens, UniProt Q96KQ7); experiment: H3K9Me2 cell immunofluorescence in-cell Western (ICW) assay; assay type: cell-based; settings: MDA-MB-231 cell line, 48 h
T2 construct: endogenous in cells; host or cells: MDA-MB-231
T2 sequence (Q96KQ7 1-1210): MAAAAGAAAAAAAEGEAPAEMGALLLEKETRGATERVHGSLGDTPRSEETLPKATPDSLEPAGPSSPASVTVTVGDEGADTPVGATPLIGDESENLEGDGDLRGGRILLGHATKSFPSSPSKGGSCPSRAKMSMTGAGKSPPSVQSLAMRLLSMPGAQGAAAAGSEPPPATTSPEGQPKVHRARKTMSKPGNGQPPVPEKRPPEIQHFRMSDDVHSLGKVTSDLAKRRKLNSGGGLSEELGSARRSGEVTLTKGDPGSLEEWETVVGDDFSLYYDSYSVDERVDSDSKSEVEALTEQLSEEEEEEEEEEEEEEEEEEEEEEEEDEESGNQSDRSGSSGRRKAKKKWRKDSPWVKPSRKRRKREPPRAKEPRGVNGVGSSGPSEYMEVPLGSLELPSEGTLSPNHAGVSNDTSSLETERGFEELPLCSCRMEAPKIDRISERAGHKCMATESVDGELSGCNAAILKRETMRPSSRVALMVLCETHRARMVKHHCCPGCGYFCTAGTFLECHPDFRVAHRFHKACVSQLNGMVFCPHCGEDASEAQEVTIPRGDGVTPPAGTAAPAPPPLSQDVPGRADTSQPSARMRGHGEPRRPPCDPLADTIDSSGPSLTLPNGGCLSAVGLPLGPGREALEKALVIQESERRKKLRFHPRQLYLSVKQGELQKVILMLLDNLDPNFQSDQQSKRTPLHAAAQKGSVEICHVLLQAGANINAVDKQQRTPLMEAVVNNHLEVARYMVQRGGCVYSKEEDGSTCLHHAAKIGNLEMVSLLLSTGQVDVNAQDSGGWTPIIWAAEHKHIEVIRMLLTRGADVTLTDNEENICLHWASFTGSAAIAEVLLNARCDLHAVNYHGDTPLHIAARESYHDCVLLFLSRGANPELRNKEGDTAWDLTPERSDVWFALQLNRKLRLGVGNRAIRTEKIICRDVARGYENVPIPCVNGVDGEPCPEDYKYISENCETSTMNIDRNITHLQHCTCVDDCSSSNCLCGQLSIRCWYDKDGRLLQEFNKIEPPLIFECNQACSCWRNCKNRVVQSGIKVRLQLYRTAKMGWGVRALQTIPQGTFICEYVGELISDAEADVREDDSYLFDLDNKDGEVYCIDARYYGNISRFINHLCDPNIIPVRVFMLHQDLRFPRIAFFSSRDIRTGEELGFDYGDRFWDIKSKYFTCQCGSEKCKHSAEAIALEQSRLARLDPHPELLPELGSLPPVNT
Description: After the incubation, the media was removed and 100 μl fixation and permeabilization solution (2% formaldehyde in PBS) for fixation was added for 30 min. And then use 200 μl 0.1% Triton X100 in PBS washing solution to wash (allow wash to shake on a plate shaker for 5 minutes). After five washes, cells were blocked for 1 h with 150 μl blocking buffer to each well (1% BSA in PBS) (allow blocking at RT with moderate shaking on a plate shaker). After 1 h, remove the blocking buffer from the blocking step and add primary antibody in blocking buffer to cover the bottom of each well. […] The plates were read on an Odyssey CLX (LiCor) scanner at both 800 nm (H3K9me2 signal) and 700 nm (cell tag 700 stain signal) channels. IC50s were calculated using GraphPad Prizm statistical package with sigmoidal variable slope dose response curve fit.

A549 = experiment: Cytotoxicity / anti-proliferation assay (CCK-8), A549; assay type: cell-based; settings: Homo sapiens, 72 h, CCK-8 kit
Description: (§1) Then the cells were exposed to the different inhibitors with various concentrations for 72 h. […] EC50s were calculated using GraphPad Prizm statistical package with sigmoidal variable slope dose response curve fit.
(§2) Cell anti-proliferation assays were performed to determine the toxicity of these inhibitors. […] These compounds were further evaluated against the control cell line HEK293 to test their toxicity with a non-cancerous cell line.

HCT-8 = experiment: Cytotoxicity / anti-proliferation assay (CCK-8), HCT-8; assay type: cell-based; settings: Homo sapiens, 72 h, CCK-8 kit
Description: as §1, §2

| SMILES | inhibition at 5 µM [1] [%] | IC50 (G9a) [µM] | EC50 (A549) [µM] | EC50 (HCT-8) [µM] |
| --- | --- | --- | --- | --- |
| COc1ccc2c(NCCNC(=O)CCCCCCC(=O)NO)nc(N3CCCN(C)CC3)nc2c1 [Compound 21, N1-hydroxy-N8-(2-((7-methoxy-2-(4-methyl-1,4-diazepan-1-yl)quinazolin-4 yl)amino)ethyl)octanediamide] | 22.8 ± 26.7 |  | > 100 | > 100 |
| COc1cc2nc(N3CCCN(C)CC3)nc(NC3CCN(C(=O)CCCCCCC(=O)NO)CC3)c2cc1OC [Compound 19, 8-(4-((6,7-dimethoxy-2-(4-methyl-1,4-diazepan-1-yl)quinazolin-4-yl)amino)piperidin-1-yl)-N-hydroxy-8-oxooctanamide] | 10.7 ± 25.9 | 99.6 ± 3.13 | > 100 | > 100 |
| COc1ccc2c(NC3CCN(Cc4ccccc4)CC3)nc(NCCNC(=O)CCCCC(=O)NO)nc2c1 [Compound 15, N1-(2-((4-((1-benzylpiperidin-4-yl)amino)-7-methoxyquinazolin-2-yl)amino)ethyl)-N6-hydroxyadipamide] | 47.9 ± 12.9 | 72.1 ± 1.37 | > 100 | > 100 |
| COc1ccc2c(NC3CCN(Cc4ccccc4)CC3)nc(NCCNC(=O)CCCC(=O)NO)nc2c1 [Compound 16, N1-(2-((4-((1-benzylpiperidin-4-yl)amino)-7-methoxyquinazolin-2-yl)amino)ethyl)-N5-hydroxyglutaramide] | 40.3 ± 13.8 | 90.3 ± 3.75 |  | 83.9 |
| COc1cc2nc(N3CCCN(C)CC3)nc(NC3CCN(C(=O)CCCCCC(=O)NO)CC3)c2cc1OC [Compound 20, 7-(4-((6,7-dimethoxy-2-(4-methyl-1,4-diazepan-1-yl)quinazolin-4-yl)amino)piperidin-1-yl)-N-hydroxy-7-oxoheptanamide] | 14.6 ± 15.8 | 97.5 ± 2.78 | > 100 | > 100 |

Continued by falling IC50 (G9a), values first:

| inhibition at 5 µM [1] [%] | IC50 (G9a) [µM] | SMILES | EC50 (A549) [µM] | EC50 (HCT-8) [µM] |
| --- | --- | --- | --- | --- |
| 40.3 ± 15.3 | 60.6 ± 3.66 | COc1ccc2c(NCCNC(=O)CCCCCC(=O)NO)nc(N3CCCN(C)CC3)nc2c1 [Compound 22, N1-hydroxy-N7-(2-((7-methoxy-2-(4-methyl-1,4-diazepan-1-yl)quinazolin-4-yl)amino)ethyl)heptanediamide] | > 100 | > 100 |
| 69.1 ± 24.5 | 47 ± 3.33 | COc1ccc2c(NC3CCN(C)CC3)nc(NCCNC(=O)CCCCC(=O)NO)nc2c1 [Compound 15a, N1-hydroxy-N6-(2-((7-methoxy-4-((1-methylpiperidin-4-yl)amino)quinazolin-2-yl)amino)ethyl)adipamide] | > 100 | > 100 |
| 29.7 ± 23.3 | 46.8 ± 1.97 | COc1ccc2c(NC3CCN(C)CC3)nc(NCCNC(=O)CCCCCC(=O)NO)nc2c1 [Compound 14a, N1-hydroxy-N7-(2-((7-methoxy-4-((1-methylpiperidin-4-yl)amino)quinazolin-2yl)amino)ethyl) heptanediamide] | > 100 | > 100 |
| 40.3 ± 13.8 | 45.7 ± 1.76 | COc1ccc2c(NC3CCN(C)CC3)nc(NCCNC(=O)CCCC(=O)NO)nc2c1 [Compound 16a, N1-hydroxy-N5-(2-((7-methoxy-4-((1-methylpiperidin-4-yl)amino)quinazolin-2-yl)amino)ethyl)glutaramide] | > 100 | > 100 |

Source: patent publication US20190322643A1 (Georgia State University Research Foundation, Inc., priority 2016, published 2019)
